Laboratory results published in ChEMBL document CHEMBL3217746, “Edaravone containing isoindoline nitroxides for the potential treatment of cardiovascular ischaemia” (Medchemcomm, 2011).
Calls of active or inactive are those of the source. The rule behind the calls is not given here.

Experiments:
H9c2 [1] = experiment: Cardioprotective activity in rat H9c2 cells hypoxia-induced ischaemic model assessed as maximal decrease in cell death at 100 uM by propidium iodide exclusion assay; assay type: functional, cell-based
H9c2 [2] = experiment: Cardioprotective activity in rat H9c2 cells hypoxia-induced ischaemic model assessed as decrease in cell death at 1 to 100 uM by propidium iodide exclusion assay; assay type: functional, cell-based
[3] = Peak plasma concentration in rat at 1.5 mg/kg, iv bolus dose; assay type: ADME, organism-based; set-up: dose 1.5 mg/kg, route intravenous
Rattus norvegicus = experiment: Cardioprotective activity against iv dosed ischaemic brain injury rat model assessed as effective dose after 30 mins; assay type: functional
H9c2 [4] = experiment: Cardioprotective activity in rat H9c2 cells hypoxia-induced ischaemic model assessed as maximal decrease in cell death at 10 uM by propidium iodide exclusion assay; assay type: functional

SMILES	inhibition (H9c2 [1])	inhibition (H9c2 [2])	Cmax [3]	ED (Rattus norvegicus)	inhibition at 10 µM (H9c2 [4])
CC1=NN(c2ccc3c(c2)C(C)(C)N([O])C3(C)C)C(=O)C1	85.5%	Active			
CON1C(C)(C)c2ccc(N3N=C(C)CC3=O)cc2C1(C)C		Active			
CC1=NN(c2ccccc2)C(=O)C1 [EDARAVONE]		Active	20 µM	3 mg/kg	
OC[C@H]1O[C@@H](n2cnc3c(NC4CCCC4)ncnc32)[C@H](O)[C@@H]1O [N6-CYCLOPENTYLADENOSINE]					75.4%
